# In patent US20220204539A1, “CD73 INHIBITORS” (BioArdis LLC, priority 2019, published 2022):
# Experiments:
# [1] = target: T1, Cell surface CD73 of U87 MG human glioblastoma cells (Homo sapiens, UniProt P21589); experiment: CD73 Cellular Assay; assay type: cell-based; details: 5000 cells per well, 30 μM AMP substrate, read-out: Potency (IC50, CD73 cellular assay)
# T1 construct: Cell surface CD73 catalyzes the conversion of adenosine monophosphate (AMP) to adenosine and inorganic phosphate; endogenous in cells; host or cells: U87 MG human glioblastoma cells
# T1 sequence (P21589 27-549): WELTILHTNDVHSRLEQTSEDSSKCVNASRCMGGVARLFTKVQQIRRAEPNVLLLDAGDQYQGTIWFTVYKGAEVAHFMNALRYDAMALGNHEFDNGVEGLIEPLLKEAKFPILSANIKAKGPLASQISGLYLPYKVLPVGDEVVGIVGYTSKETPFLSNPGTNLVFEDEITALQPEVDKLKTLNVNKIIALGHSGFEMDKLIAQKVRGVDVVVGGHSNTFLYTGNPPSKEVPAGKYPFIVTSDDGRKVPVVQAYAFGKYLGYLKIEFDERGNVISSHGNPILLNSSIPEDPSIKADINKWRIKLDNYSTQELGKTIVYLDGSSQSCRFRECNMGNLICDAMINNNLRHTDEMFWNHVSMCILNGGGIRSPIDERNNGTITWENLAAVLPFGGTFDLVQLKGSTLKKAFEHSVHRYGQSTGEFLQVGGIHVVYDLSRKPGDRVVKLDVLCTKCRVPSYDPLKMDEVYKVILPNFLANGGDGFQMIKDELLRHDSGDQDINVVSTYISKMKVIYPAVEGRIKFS
# Procedure: Cell surface CD73 catalyzes the conversion of adenosine monophosphate (AMP) to adenosine and inorganic phosphate. U87 MG human glioblastoma cells express high level of CD73. Cells are treated with compounds in a 96-well assay plate and supernatants are collected into a 384-well detection plate. The concentration of inorganic phosphate (Pi) in the supernatants is determined using the phosphate detection reagent, PiColorLock™ (Innova Bioscience, Cat #303-0125) following the manufacturer's instructions.
# Briefly, on the day of the assay, U87 MG cells were harvested and resuspended in assay buffer which consisted of 20 mM HEPES, pH=7.4, 137 mM NaCl, 5.4 mM KCl, 1.3 mM CaCl2, 4.2 mM NaHCO3 and 0.1% glucose. To test the effect of compounds on cellular CD73 enzymatic activity, 500 nL/well of compounds dissolved in DMSO were added to a 96-well TC-treated microplate (Corning #3599). Next, 80 μL/well of U87 MG cells in assay buffer were added to assay plate. After 30 minutes of incubation in an atmosphere of 5% CO2 at 37° C., 20 μL/well of 150 μM AMP (Adenosine 5′-monophosphate monohydrate, Sigma, Cat #01930) in assay buffer was added to assay plate. Final assay conditions consisted of 5000 cells per well in 0.5% DMSO and 30 μM AMP substrate. After 50 minutes of incubation in an atmosphere of 5% CO2 at 37° C., 50 μL/well of supernatant was transferred to the 384-well detection plate (Corning® NBS™ 384 well plates, Cat #3640). Meanwhile “Gold mix” was prepared shortly before use by adding 1/100 volume of accelerator to the PiColorLock™ Gold reagent. 12 μL/well of the “Gold mix” was added to detection plate containing 50 μL/well of supernatant and incubated at 25° C. for 5 minutes. 5 μL/well stabilizer was added to the detection plate and incubated at 25° C. for 30 minutes. The absorbance at 635 nm was measured on a Spark 10M instrument (TECAN). The percent (%) inhibition at each concentration of a compound was calculated relative to the OD value in the Max and Min control wells contained within each assay plate. The Max control wells contained cells and substrate as 0% inhibition, and the Min control wells only contained cells as 100% inhibition. The concentrations and percent inhibition values for a test compound are plotted and the concentration of a the compound required to achieve 50% inhibition (IC50) was determined with a four-parameter logistic dose response equation.
# [2] = target: T2, Recombinant Human 5′-Nucleotidase (CD73) (Homo sapiens, UniProt P21589); experiment: CD73 Enzyme Assay; assay type: biochemical; details: human CD73 0.5 nM, AMP 30 μM, PiColorLock phosphate detection; read-out: Potency (IC50, CD73 enzyme assay)
# T2 construct: CHO derived CD73 (Trp27-Lys547), with a C-terminal 6-His tag; 6-His (C); purchased R&D 5795-EN; host or cells: CHO
# T2 sequence (P21589 27-547): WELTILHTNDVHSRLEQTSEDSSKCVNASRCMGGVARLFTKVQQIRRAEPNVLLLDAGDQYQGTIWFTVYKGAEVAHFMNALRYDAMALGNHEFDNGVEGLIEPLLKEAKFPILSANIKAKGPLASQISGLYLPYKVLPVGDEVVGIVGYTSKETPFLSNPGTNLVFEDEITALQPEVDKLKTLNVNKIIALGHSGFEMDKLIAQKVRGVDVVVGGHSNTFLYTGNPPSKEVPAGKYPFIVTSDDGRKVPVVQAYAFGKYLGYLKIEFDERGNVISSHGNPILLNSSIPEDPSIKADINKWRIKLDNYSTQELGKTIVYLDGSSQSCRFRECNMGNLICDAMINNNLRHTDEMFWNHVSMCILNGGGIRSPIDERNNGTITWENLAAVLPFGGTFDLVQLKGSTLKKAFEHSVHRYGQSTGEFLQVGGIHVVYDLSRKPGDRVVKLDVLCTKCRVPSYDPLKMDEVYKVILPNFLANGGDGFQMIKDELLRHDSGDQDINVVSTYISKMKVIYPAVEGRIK
# Summary of the method: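 Human CD73 (CHO-derived Trp27-Lys547, His-tagged; 0.5 nM final) was preincubated with compound for 15 min at 25° C. in Tris pH 7.5 buffer with MgCl2. It then reacted with 30 μM AMP for 20 min at 37° C., and released phosphate was read by malachite green absorbance at 635 nm. IC50 came from four-parameter fits against enzyme and no-enzyme controls.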
SMILES,IC50 [1] [nM],IC50 [2] [nM]
"O=P(O)(O)CP(=O)(O)OC[C@H]1O[C@@H](c2cnc3c(N[C@@H]4CCc5ccccc54)nc(Cl)nn23)[C@H](O)[C@@H]1O [Compound 28, (((((2R,3S,4R,1S)-5-(2-chloro-4-(((R)-2,3-dihydro-1H-inden-1-yl)amino)imidazo[2,1-f][1,2,4]triazin-7-yl)-3,4-dihydroxytetrahydrofuran-2-yl)methoxy)(hydroxy)phosphoryl)methyl)phosphonic Acid]",< 1,< 10
"O=P(O)(O)CP(=O)(O)OC[C@H]1O[C@@H](c2cnc3c(N4CCc5ccccc54)nc(Cl)nn23)[C@H](O)[C@@H]1O [Compound 18, (((((2R,3S,4R,1S)-5-(2-chloro-4-(indolin-1-yl)imidazo[2,1-f][1,2,4]triazin-7-yl)-3,4-dihydroxytetrahydrofuran-2-yl)methoxy)(hydroxy)phosphoryl)methyl)phosphonic Acid]",1 to 9.9,< 10
"CC(C)[C@@H]1CCCN1c1nc(Cl)nn2c([C@@H]3O[C@H](COP(=O)(O)CP(=O)(O)O)[C@@H](O)[C@H]3O)cnc12 [Compound 39, (((((2R,3S,4R,1S)-5-(2-chloro-4-((S)-2-isopropylpyrrolidin-1-yl)imidazo[2,1-f][1,2,4]triazin-7-yl)-3,4-dihydroxytetrahydrofuran-2-yl)methoxy)(hydroxy)phosphoryl)methyl)phosphonic acid]",< 1,< 10
"O=P(O)(O)CP(=O)(O)OC[C@H]1O[C@@H](c2cnc3c(N4CCC(F)(F)C4)nc(Cl)nn23)[C@H](O)[C@@H]1O [Compound 46, [({[(2R,3S,4R,5S)-5-[2-chloro-4-(3,3-difluoropyrrolidin-1-yl)imidazo[2,1-f][1,2,4]triazin-7-yl]-3,4-dihydroxyoxolan-2-yl]methoxy}(hydroxy)phosphoryl)methyl]phosphonic Acid]",< 1,< 10
"O=P(O)(O)CP(=O)(O)OC[C@H]1O[C@@H](c2cnc3c(N[C@H]4CCOC4)nc(Cl)nn23)[C@H](O)[C@@H]1O [Compound 21, [({[(2R,3S,4R,5S)-5-{2-chloro-4-[(3S)-oxolan-3-ylamino]imidazo[2,1-f][1,2,4]triazin-7-yl}-3,4-dihydroxyoxolan-2-yl]methoxy}(hydroxy)phosphoryl)methyl]phosphonic Acid]",< 1,< 10
"O=P(O)(O)CP(=O)(O)OC[C@H]1O[C@@H](c2cnc3c(NCc4ccccc4Cl)nc(Cl)nn23)[C@H](O)[C@@H]1O [Compound 11, [({[(2R,3S,4R,5S)-5-(2-chloro-4-{[(2-chlorophenyl)methyl]amino}imidazo[2,1-f][1,2,4]triazin-7-yl)-3,4-dihydroxyoxolan-2-yl]methoxy}(hydroxy)phosphoryl)methyl]phosphonic acid]",< 1,< 10
"O=P(O)(O)CP(=O)(O)OC[C@H]1O[C@@H](c2cnc3c(N4CCC[C@H]4c4ccccc4F)nc(Cl)nn23)[C@H](O)[C@@H]1O [Compound 55, (((((2R,3S,4R,1S)-5-(2-chloro-4-((S)-2-(2-fluorophenyl)pyrrolidin-1-yl)imidazo[2,1-f][1,2,4]triazin-7-yl)-3,4-dihydroxytetrahydrofuran-2-yl)methoxy)(hydroxy)phosphoryl)methyl)phosphonic Acid]",< 1,< 10
"O=P(O)(O)CP(=O)(O)OC[C@H]1O[C@@H](c2cnc3c(N[C@H]4CCc5ccccc54)nc(Cl)nn23)[C@H](O)[C@@H]1O [Compound 63, [({[(2R,3S,4R,5S)-5-{2-chloro-4-[(1S)-2,3-dihydro-1H-inden-1-ylamino]imidazo[2,1-f][1,2,4]triazin-7-yl}-3,4-dihydroxyoxolan-2-yl]methoxy}(hydroxy)phosphoryl)methyl] phosphonic acid]",< 1,< 10
"C[C@H](Nc1nc(Cl)nn2c([C@@H]3O[C@H](COP(=O)(O)CP(=O)(O)O)[C@@H](O)[C@H]3O)cnc12)c1cccc(F)c1 [Compound 36, (((((2R,3S,4R,5S)-5-(2-chloro-4-(((S)-1-(3-fluorophenyl)ethyl)amino)imidazo[2,1-f][1,2,4]triazin-7-yl)-3,4-dihydroxytetrahydrofuran-2-yl)methoxy)(hydroxy)phosphoryl)methyl) phosphonic acid]",< 1,< 10
"O=P(O)(O)CP(=O)(O)OC[C@H]1O[C@@H](c2cnc3c(NC4CCCC4)nc(Cl)nn23)[C@H](O)[C@@H]1O [Compound 5, (((((2R,3S,4R,1S)-5-(2-chloro-4-(cyclopentylamino)imidazo[2,1-f][1,2,4]triazin-7-yl)-3,4-dihydroxytetrahydrofuran-2-yl)methoxy)(hydroxy)phosphoryl)methyl)phosphonic acid]",< 1,< 10
"O=P(O)(O)CP(=O)(O)OC[C@H]1O[C@@H](c2coc3c(NCc4ccccc4)nc(Cl)nc23)[C@H](O)[C@@H]1O [Compound 15, [({[(2R,3S,4R,5S)-5-[4-(benzylamino)-2-chlorofuro[3,2-d]pyrimidin-7-yl]-3,4-dihydroxyoxolan-2-yl]methoxy}(hydroxy)phosphoryl)methyl]phosphonic Acid]",< 1,< 10
"C[C@H](Nc1nc(Cl)nn2c(C3O[C@H](COP(=O)(O)CP(=O)(O)O)[C@@H](O)[C@@H]3F)cnc12)c1ccccc1F (stereo partly drawn) [Compound 74, (((((2R,3R,4S)-5-(2-chloro-4-(((S)-1-(2-fluorophenyl)ethyl)amino)imidazo[2,1-f][1,2,4]triazin-7-yl)-4-fluoro-3-hydroxytetrahydrofuran-2-yl)methoxy)(hydroxy)phosphoryl)methyl)phosphonic Acid]",10 to 99.9,10 to 99
"C[C@H](Nc1nc(Cl)nn2c([C@@H]3O[C@H](COP(=O)(O)CP(=O)(O)O)[C@@H](O)[C@H]3O)cnc12)c1ccc(Cl)cc1 [Compound 54, (((((2R,3S,4R,1S)-5-(2-chloro-4-(((S)-1-(4-chlorophenyl)ethyl)amino)imidazo[2,1-f][1,2,4]triazin-7-yl)-3,4-dihydroxytetrahydrofuran-2-yl)methoxy)(hydroxy)phosphoryl)methyl)phosphonic Acid]",< 1,< 10
